What was measured:
ENaC = molecular target: T1, ENaC (Homo sapiens, UniProt P37088+P51168+P51170); experiment: Short circuit current assay to determine ENaC blocker potency in human bronchial epithelial cells; assay type: cell-based; conditions: 50% inhibition of total amiloride-sensitive ISC, apical addition, read-out: Averages.ENaC IC50 (nM) Avg
T1 construct: host or cells: primary human bronchial epithelial cells (HBECs) differentiated at air-liquid interface
T1 sequence (P37088 1-669): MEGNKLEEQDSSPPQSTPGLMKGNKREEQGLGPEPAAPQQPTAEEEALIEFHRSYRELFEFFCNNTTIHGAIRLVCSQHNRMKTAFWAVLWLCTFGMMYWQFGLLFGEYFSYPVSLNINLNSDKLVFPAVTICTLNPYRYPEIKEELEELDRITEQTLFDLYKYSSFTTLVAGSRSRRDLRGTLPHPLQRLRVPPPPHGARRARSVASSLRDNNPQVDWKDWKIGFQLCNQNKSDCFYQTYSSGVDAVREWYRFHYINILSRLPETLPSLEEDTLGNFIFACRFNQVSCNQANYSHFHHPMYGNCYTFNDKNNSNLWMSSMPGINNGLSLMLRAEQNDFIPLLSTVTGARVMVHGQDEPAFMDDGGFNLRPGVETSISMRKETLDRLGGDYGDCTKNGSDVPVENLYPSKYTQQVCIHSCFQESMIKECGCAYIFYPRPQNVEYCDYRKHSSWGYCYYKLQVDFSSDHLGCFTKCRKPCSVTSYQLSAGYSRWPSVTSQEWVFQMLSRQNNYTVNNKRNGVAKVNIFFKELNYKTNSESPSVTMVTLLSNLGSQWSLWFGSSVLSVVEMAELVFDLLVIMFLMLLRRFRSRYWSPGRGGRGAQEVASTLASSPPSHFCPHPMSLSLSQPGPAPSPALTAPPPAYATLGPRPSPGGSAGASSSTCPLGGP
T1 sequence (P51168 1-640): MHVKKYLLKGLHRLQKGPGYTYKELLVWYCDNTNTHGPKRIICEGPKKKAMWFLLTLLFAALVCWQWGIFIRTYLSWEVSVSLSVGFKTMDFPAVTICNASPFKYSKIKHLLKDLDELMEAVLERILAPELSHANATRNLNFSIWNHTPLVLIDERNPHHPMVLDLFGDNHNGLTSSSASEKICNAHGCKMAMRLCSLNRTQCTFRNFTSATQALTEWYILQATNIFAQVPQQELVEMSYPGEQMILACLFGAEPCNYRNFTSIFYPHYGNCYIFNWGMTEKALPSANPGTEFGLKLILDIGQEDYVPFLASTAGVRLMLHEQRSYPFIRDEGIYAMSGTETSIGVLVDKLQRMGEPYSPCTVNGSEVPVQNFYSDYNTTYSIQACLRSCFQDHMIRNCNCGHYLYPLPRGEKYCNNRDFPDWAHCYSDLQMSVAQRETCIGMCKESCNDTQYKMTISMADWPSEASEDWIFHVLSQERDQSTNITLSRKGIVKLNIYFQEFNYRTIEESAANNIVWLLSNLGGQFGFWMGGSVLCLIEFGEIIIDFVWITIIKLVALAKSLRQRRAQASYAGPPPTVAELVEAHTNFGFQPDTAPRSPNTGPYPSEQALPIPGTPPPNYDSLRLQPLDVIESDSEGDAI
T1 sequence (P51170 1-649): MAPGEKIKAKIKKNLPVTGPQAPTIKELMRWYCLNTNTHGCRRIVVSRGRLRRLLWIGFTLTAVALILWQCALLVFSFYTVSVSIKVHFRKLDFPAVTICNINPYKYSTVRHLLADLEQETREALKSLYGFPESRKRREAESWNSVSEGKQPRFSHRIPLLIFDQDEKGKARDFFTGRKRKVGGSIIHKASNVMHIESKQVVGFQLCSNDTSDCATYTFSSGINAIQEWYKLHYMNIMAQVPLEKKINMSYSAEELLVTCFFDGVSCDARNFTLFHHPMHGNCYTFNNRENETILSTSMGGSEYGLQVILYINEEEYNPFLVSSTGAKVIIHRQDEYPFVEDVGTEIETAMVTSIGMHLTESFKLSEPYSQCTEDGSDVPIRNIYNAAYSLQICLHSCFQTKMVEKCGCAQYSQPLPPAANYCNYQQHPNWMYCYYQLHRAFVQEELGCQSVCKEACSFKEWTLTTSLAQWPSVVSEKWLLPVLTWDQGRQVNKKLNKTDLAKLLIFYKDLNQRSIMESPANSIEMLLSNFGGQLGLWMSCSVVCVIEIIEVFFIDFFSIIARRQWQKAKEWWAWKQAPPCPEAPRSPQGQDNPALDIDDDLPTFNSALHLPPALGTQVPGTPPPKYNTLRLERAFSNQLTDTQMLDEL
How it was run: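 Primary human bronchial epithelial cells at air-liquid interface (days 14–21) were voltage-clamped at 0 mV in Ussing chambers (Ringer, pH 7.4, 37° C.). Compounds were added apically as cumulative concentrations, then 10 μM amiloride. IC50 was taken as 50% inhibition of amiloride-sensitive ISC.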

[1] = Bronchoalveolar lavage (BAL) procedure: compound levels after intratracheal administration; assay type: in vivo; conditions: bronchoalveolar lavage fluid (BAL), other: intratracheal, 0.1 mg/kg, rat, 0.1 mg/mL solution in 5% dextrose, 1 mL/Kg, BAL 6 hours after administration, LC/MS/MS
Procedure: Example 69—Bronchoalveolar Lavage (BAL) Procedure A 0.1 mg/mL solution of ENaC inhibitor in 5% dextrose was administered intratracheally to a rat weighing 225-250 g. A volume of 1 mL/Kg was used. After 6 hours, lungs were lavaged with 3×4 mL of sterile saline. A 1 mL aliquot was subsequently snap frozen. Lungs were excised, weighed and snap frozen. Compound levels in the BAL and lung tissue were subsequently determined using LC/MS/MS bioanalysis.

Row | IC50 (ENaC) [nM] | concentration at 6 h [1] [ng/mL] | SMILES
1 | 49 | 139 | CCn1c(CNC(=O)c2nc3cc[nH]c3nc2N)[n+](CC)c2ccc(C(=O)N3CC[C@H](N(C[C@H](O)[C@@H](O)[C@H](O)[C@H](O)CO)C[C@H](O)[C@@H](O)[C@H](O)[C@H](O)CO)C3)cc21 [Example 54, 2-[({3-amino-5H-pyrrolo[2,3-b]pyrazin-2-yl}formamido)methyl]-6-[(3S)-3-{bis[(2S,3R,4R,5R)-2,3,4,5,6-pentahydroxyhexyl]amino}pyrrolidine-1-carbonyl]-1,3-diethyl-1H-1,3-benzodiazol-3-ium]
2 | 78 | 284 | CCn1c(CNC(=O)c2nc3cc[nH]c3nc2N)[n+](CC)c2ccc(C(=O)N[C@H]3CC[C@H](N(C[C@H](O)[C@@H](O)[C@H](O)[C@H](O)CO)C[C@H](O)[C@@H](O)[C@H](O)[C@H](O)CO)CC3)cc21 [Example 55, 2-[({3-amino-5H-pyrrolo[2,3-b]pyrazin-2-yl}formamido)methyl]-1,3-diethyl-6-{[(1r,4r)-4-{bis[(2S,3R,4R,5R)-2,3,4,5,6-pentahydroxyhexyl]amino}cyclohexyl]carbamoyl}-1H-1,3-benzodiazol-3-ium]
3 | 15 | 283 | CCn1c(CNC(=O)c2nc3cc[nH]c3nc2N)[n+](CC)c2ccc(C(=O)N[C@H]3CC[C@@H](N(C[C@H](O)[C@@H](O)[C@H](O)[C@H](O)CO)C[C@H](O)[C@@H](O)[C@H](O)[C@H](O)CO)CC3)cc21 [Example 56, 2-[({3-amino-5H-pyrrolo[2,3-b]pyrazin-2-yl}formamido)methyl]-1,3-diethyl-6-{[(1s,4s)-4-{bis[(2S,3R,4R,5R)-2,3,4,5,6-pentahydroxyhexyl]amino}cyclohexyl]carbamoyl}-1H-1,3-benzodiazol-3-ium]
4 | 36 | 283 | CCn1c(CNC(=O)c2nc3cc[nH]c3nc2N)[n+](CC)c2ccc(C(=O)N(C)CCCN(C[C@H](O)[C@@H](O)[C@H](O)[C@H](O)CO)C[C@H](O)[C@@H](O)[C@H](O)[C@H](O)CO)cc21 [Example 57, 2-[({3-amino-5H-pyrrolo[2,3-b]pyrazin-2-yl}formamido)methyl]-6-[(3-{bis[(2S,3R,4R,5R)-2,3,4,5,6-pentahydroxyhexyl]amino}propyl)(methyl)carbamoyl]-1,3-diethyl-1H-1,3-benzodiazol-3-ium]
5 | 78 | 256 | CCn1c(CNC(=O)c2nc3cc[nH]c3nc2N)[n+](CC)c2ccc(C(=O)NCCN(C[C@H](O)[C@@H](O)[C@H](O)[C@H](O)CO)C[C@H](O)[C@@H](O)[C@H](O)[C@H](O)CO)cc21 [Example 58, 2-[({3-amino-5H-pyrrolo[2,3-b]pyrazin-2-yl}formamido)methyl]-6-[(2-{bis[(2S,3R,4R,5R)-2,3,4,5,6-pentahydroxyhexyl]amino}ethyl)carbamoyl]-1,3-diethyl-1H-1,3-benzodiazol-3-ium]
6 | 171 | 197 | CCn1c(CNC(=O)c2nc3cc[nH]c3nc2N)[n+](CC)c2ccc(C(=O)NCCOCCOCCOCCN(C[C@H](O)[C@@H](O)[C@H](O)[C@H](O)CO)C[C@H](O)[C@@H](O)[C@H](O)[C@H](O)CO)cc21 [Example 59, 2-[({3-amino-5H-pyrrolo[2,3-b]pyrazin-2-yl}formamido)methyl]-1,3-diethyl-5-{[(14S,15R,16R,17R)-14,15,16,17,18-pentahydroxy-12-[(2S,3R,4R,5R)-2,3,4,5,6-pentahydroxyhexyl]-3,6,9-trioxa-12-azaoctadecan-1-yl]carbamoyl}-1H-1,3-benzodiazol-3-ium]
7 | 22 | 176 | CCn1c(CNC(=O)c2nc3cc[nH]c3nc2N)[n+](CC)c2ccc(C(=O)NCCc3ccc(-c4ccc(CCN(C[C@H](O)[C@@H](O)[C@H](O)[C@H](O)CO)C[C@H](O)[C@@H](O)[C@H](O)[C@H](O)CO)cc4)cc3)cc21 [Example 60, 2-[({3-amino-5H-pyrrolo[2,3-b]pyrazin-2-yl}formamido)methyl]-6-({2-[4′-(2-{bis[(2S,3R,4R,5R)-2,3,4,5,6-pentahydroxyhexyl]amino}ethyl)-[1,1′-biphenyl]-4-yl]ethyl}carbamoyl)-1,3-diethyl-1H-1,3-benzodiazol-3-ium]
8 | 43 | 167 | CCn1c(CNC(=O)c2nc3cc[nH]c3nc2N)[n+](CC)c2ccc(C(=O)NCC[C@H](NCCCN(C[C@H](O)[C@@H](O)[C@H](O)[C@H](O)CO)C[C@H](O)[C@@H](O)[C@H](O)[C@H](O)CO)C(N)=O)cc21 [Example 61, 2-[({3-amino-5H-pyrrolo[2,3-b]pyrazin-2-yl}formamido)methyl]-6-{[(3S)-3-[(3-{bis[(2S,3R,4R,5R)-2,3,4,5,6-pentahydroxyhexyl]amino}propyl)amino]-3-carbamoylpropyl]carbamoyl}-1,3-diethyl-1H-1,3-benzodiazol-3-ium]
9 | 24 | 140 | CCn1c(CNC(=O)c2nc3cc[nH]c3nc2N)[n+](CC)c2ccc(C(=O)NCCCCc3ccc(CCC(NCCCN(C[C@H](O)[C@@H](O)[C@H](O)[C@H](O)CO)C[C@H](O)[C@@H](O)[C@H](O)[C@H](O)CO)C(N)=O)cc3)cc21 (stereo partly drawn) [Example 62, 2-[({3-amino-5H-pyrrolo[2,3-b]pyrazin-2-yl}formamido)methyl]-6-{[4-(4-{3-[(3-{bis[(2S,3R,4R,5R)-2,3,4,5,6-pentahydroxyhexyl]amino}propyl)amino]-3-carbamoylpropyl}phenyl)butyl]carbamoyl}-1,3-diethyl-1H-1,3-benzodiazol-3-ium]

From patent US12371436B2, “Substituted benzodiazoliums as ENaC inhibitors” (ENTERPRISE THERAPEUTICS LIMITED, priority 2016, dated 2025)
